Data on 29 compounds can be found in patent publication US20230114241A1, “METHODS OF TREATING EPILEPSY USING THE SAME” (Trevena, Inc., priority 2019, published 2023).

The structures appear in SMILES notation.

Chain of human sphingosine-1-phosphate receptor 1 (S1P1) (P21453 whole entry): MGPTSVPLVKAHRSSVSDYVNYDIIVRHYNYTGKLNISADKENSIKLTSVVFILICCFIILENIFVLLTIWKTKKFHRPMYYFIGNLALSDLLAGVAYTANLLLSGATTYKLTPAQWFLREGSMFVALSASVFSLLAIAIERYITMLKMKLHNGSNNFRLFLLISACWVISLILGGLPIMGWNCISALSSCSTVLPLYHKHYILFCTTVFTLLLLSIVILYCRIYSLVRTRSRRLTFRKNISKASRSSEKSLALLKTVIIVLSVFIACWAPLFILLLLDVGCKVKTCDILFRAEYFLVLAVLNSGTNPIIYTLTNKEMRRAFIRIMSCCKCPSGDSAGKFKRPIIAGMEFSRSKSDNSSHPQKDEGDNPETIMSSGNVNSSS

The first experiment addresses human sphingosine-1-phosphate receptor 1 (S1P1) (Homo sapiens, UniProt P21453). Put plainly: Inhibition of cAMP production (HTRF cAMP HiRange), S1P1 CHO-K1 cells. In kind it is cell-based. To be noted: inhibition of cAMP production, S1P1; read-out: hS1P1 CAMP pEC50 (converted). The method, boiled down:
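Intracellular cAMP changes read by TR-FRET (HTRF HiRange, 1 h room temperature) after 30 min compound exposure at 37 °C. Cells: overnight-plated CHO-K1 stably expressing tagged human S1P1 with EA-β-arrestin2. Responses normalized to fingolimod.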
For `CC(C)Cn1nnc2cc(-c3nc4ccncc4o3)ccc21` [Compound 504, 2-(1-isobutyl-1H-benzo[d][1,2,3]triazol-5-yl)oxazolo[5,4-c]pyridine], the EC50 is above 316 nM.
Same read-out and setting: the figure for `CC(C)(CO)n1nnc2cc(-c3noc(-c4cccnc4F)n3)ccc21` [Compound 643, 2-(5-(5-(2-fluoro-pyridin-3-yl)-1,2,4-oxadiazol-3-yl)-1H-benzo[d][1,2,3]triazol-1-yl)-2-methylpropan-1-ol] is above 316 nM; for `Cc1ccncc1-c1noc(-c2ccc3c(c2)nnn3C2CCOCC2)n1` [Compound 439, 5-[3-(4-methylpyridin-3-yl)-1,2,4-oxadiazol-5-yl]-1-(oxan-4-yl)-1H-1,2,3-benzotriazole] it is above 316 nM; for `CC(C)(CO)n1nnc2cc(-c3noc(-c4cnccc4C(F)(F)F)n3)ccc21` [Compound 644, 2-methyl-2-(5-(5-(4-(trifluoro-methyl)pyridin-3-yl)-1,2,4-oxadiazol-3-yl)-1H-benzo[d][1,2,3]triazol-1-yl)propan-1-ol] it is above 316 nM.
Take `COc1cc(C)c2nc(-c3ccc4c(c3)nnn4C(C)C)oc2c1` [Compound 436, 2-(1-isopropyl-1H-benzo[d][1,2,3]triazol-5-yl)-6-methoxy-4-methylbenzo[d]oxazole]: the EC50 was below 316 nM.
`COc1cccnc1-c1noc(-c2ccc3c(c2)nnn3C(C)C)n1` [Compound 627, 5-(1-isopropyl-1H-benzo[d][1,2,3]triazol-5-yl)-3-(3-methoxypyridin-2-yl)-1,2,4-oxadiazole]: the EC50 was above 316 nM.

The same experiment, now with this note: inhibition of cAMP production; potency; read-out: hS1P1 CAMP pEC50 (converted).
With `CC(C)n1nnc2cc(-c3nc(-c4ccccc4Br)co3)ccc21` [Compound 183, 5-[4-(2-bromophenyl)-1,3-oxazol-2-yl]-1-(propan-2-yl)-1H-1,2,3-benzotriazole], the EC50 was below 316 nM.
Take `CC(C)n1nnc2cc(-c3nc(-c4ccc(OCc5ccccc5)cc4)no3)ccc21` [Compound 53, 5-{3-[4-(benzyloxy)phenyl]-1,2,4-oxadiazol-5-yl}-1-(propan-2-yl)-1H-1,2,3-benzotriazole]: the EC50 was above 316 nM.
Same read-out and setting: the figure for `CCCCC1(CCCC)CC(=O)c2cc(-c3nc(-c4cccnc4)no3)ccc2O1` [Compound 188, 2,2-dibutyl-6-[3-(pyridin-3-yl)-1,2,4-oxadiazol-5-yl]-3,4-dihydro-2H-1-benzo-pyran-4-one] is above 316 nM; for `N#Cc1cc(-c2nc(-c3ccc4c(c3)CCC(=O)N4)no2)ccc1NCCF` [Compound 343, 2-[(2-fluoroethyl)amino]-5-[3-(2-oxo-1,2,3,4-tetrahydroquinolin-6-yl)-1,2,4-oxadiazol-5-yl]benzonitrile] it is below 316 nM.
Still for that read-out and setting: the figure for `CCC1(CC)CC(=O)c2cc(-c3nc(-c4ccnc(C(F)(F)F)c4)no3)ccc2O1` [Compound 314, 2,2-diethyl-6-(3-(2-(trifluoromethyl)pyridin-4-yl)-1,2,4-oxadiazol-5-yl)chroman-4-one] is above 316 nM; for `Cc1ccccc1-c1noc(-c2ccc3c(cnn3C(C)C)c2)n1` [Compound 329, 5-(1-isopropyl-1H-indazol-5-yl)-3-(o-tolyl)-1,2,4-oxadiazole] it is below 316 nM.
Same read-out and setting: the figure for `Brc1ccccc1-c1nc(-c2ccc3c(c2)nnn3C2CCCCC2)no1` [Compound 115, 5-(2-bromophenyl)-3-(1-cyclohexyl-1H-benzo[d][1,2,3]triazol-5-yl)-1,2,4-oxadiazole] is below 316 nM.
Regarding `CCC1(CC)CC(=O)c2cc(-c3nc(-c4ccncc4OC)no3)ccc2O1` [Compound 212, 2,2-diethyl-6-(3-(3-methoxypyridin-4-yl)-1,2,4-oxadiazol-5-yl)chroman-4-one], the EC50 was below 316 nM.
As to `c1ccc(-c2noc(-c3ccc4c(c3)nnn4C3CCCCC3)n2)cc1` [Compound 292, 1-cyclohexyl-5-(3-phenyl-1,2,4-oxadiazol-5-yl)-1H-1,2,3-benzotriazole], the EC50 is above 316 nM.
Same read-out and setting: the figure for `CCC1(CC)CC(=O)c2cc(-c3nc(-c4ccccn4)no3)ccc2O1` [Compound 111, 2,2-diethyl-6-[3-(2-pyridyl)-1,2,4-oxadiazol-5-yl]chroman-4-one] is above 316 nM; for `N#Cc1cc(-c2nnc(-c3ccc4[nH]cnc4c3)o2)ccc1NCC1CC1` [Compound 357, 5-[5-(1H-1,3-benzo-diazol-5-yl)-1,3,4-oxadiazol-2-yl]-2-[(cyclopropylmethyl)amino]benzonitrile] it is below 316 nM.
The same measure, in the same setting: the figure for `N#Cc1cc(-c2nc(-c3ccc4c(c3)CCC(=O)N4)no2)ccc1N` [Compound 345, 2-amino-5-[3-(2-oxo-1,2,3,4-tetrahydro-quinolin-6-yl)-1,2,4-oxadiazol-5-yl]benzonitrile] is above 316 nM; for `CCCn1nnc2cc(-c3nc(-c4cccc(C(F)(F)F)c4)no3)ccc21` [Compound 242, 1-propyl-5-{3-[3-(trifluoromethyl)phenyl]-1,2,4-oxadiazol-5-yl}-1H-1,2,3-benzotriazole] it is above 316 nM; for `CCC1(CC)CC(=O)c2cc(-c3nnc(-c4ccccc4OC)s3)ccc2O1` [Compound 178, 2,2-diethyl-6-(5-(2-methoxyphenyl)-1,3,4-thiadiazol-2-yl)chroman-4-one] it is above 316 nM.
Regarding `CC(C)n1ccc2cc(-c3nc(-c4ccccc4Br)no3)ccc21` [Compound 322, 3-(2-bromophenyl)-5-(1-isopropyl-1H-indol-5-yl)-1,2,4-oxadiazole], the EC50 was below 316 nM.
On the same count and under the same terms, the figure for `CCC1(CC)CC(=O)c2cc(-c3nc(-c4ccncc4)no3)ccc2O1` [Compound 27, 2,2-diethyl-6-[3-(pyridin-4-yl)-1,2,4-oxadiazol-5-yl]-3,4-dihydro-2H-1-benzopyran-4-one] is above 316 nM; for `COc1ccc(-c2noc(-c3ccc4c(c3)nnn4C3CCCC3)n2)cc1C(F)(F)F` [Compound 197, 1-cyclopentyl-5-{3-[4-methoxy-3-(trifluoromethyl)phenyl]-1,2,4-oxadiazol-5-yl}-1H-1,2,3-benzotriazole] it is above 316 nM; for `CCC1(CC)CC(=O)c2cc(-c3nc(-c4ccnc(C)c4)no3)ccc2O1` [Compound 315, 2,2-diethyl-6-(3-(2-methylpyridin-4-yl)-1,2,4-oxadiazol-5-yl)chroman-4-one] it is below 316 nM.
As to `CCC1(CC)CC(=O)c2cc(-c3nc(-c4sccc4C)no3)ccc2O1` [Compound 265, 2,2-diethyl-6-(3-(3-methylthiophen-2-yl)-1,2,4-oxadiazol-5-yl)chroman-4-one], the EC50 is below 316 nM.
On to `Cc1ccccc1-c1noc(-c2ccc3nnn(C(C)C)c3c2)n1` [Compound 308, 6-[3-(2-methylphenyl)-1,2,4-oxadiazol-5-yl]-1-(propan-2-yl)-1H-1,2,3-benzotriazole], for which the EC50 was above 316 nM.
Same read-out and setting: the figure for `Clc1ncccc1-c1noc(-c2ccc3c(c2)nnn3CC2CC2)n1` [Compound 199, 5-[3-(2-chloropyridin-3-yl)-1,2,4-oxadiazol-5-yl]-1-(cyclopropyl-methyl)-1H-1,2,3-benzotriazole] is above 316 nM.
The same measure, in the same setting: the figure for `CCC1(CC)CC(=O)c2cc(-c3nc(-c4ccc(O)cc4)no3)ccc2O1` [Compound 72, 2,2-diethyl-6-[3-(4-hydroxyphenyl)-1,2,4-oxadiazol-5-yl]chroman-4-one] is below 316 nM; for `N#Cc1cc(-c2nnc(-c3ccc4[nH]ncc4c3)o2)ccc1NCC1CC1` [Compound 352] it is below 316 nM.
